One experiment concerns the target rat MCH1R (Rattus norvegicus, UniProt P97639). The experiment in a line: MCH-induced Ca2+ mobilization (FLIPR) in HEK 293T cells expressing rat MCH1R. Conditions: HEK 293T cell expressing rat MCH1R; read-out: EC50 for stimulation of Ca2+ mobilization. Format: cell-based.
Another experiment has as its system rats. The experiment in a line: MCH-induced food intake after icv administration. Type of experiment: in vivo, rat. The following applies: 2 nmol icv. On the procedure: To determine inhibitory effects of TPI 1361-17 on MCH-induced food intake, rats were habituated to a wire bottom cage for more than 3 weeks prior to the experiment. Experiments were carried out from 6 a.m. to 7 a.m. when rats were satiated. […] On the other hand, five nmol of TPI 1361-17 suppressed cumulative food intake by 75% even at 4h (FIG. 5B).
To determine the effects of TPI 1361-17 on MCH-induced food intake, rats were randomly divided into three groups: 1) TPI 1361-17 (dissolved in DMSO) and 2 nmol of MCH; 2) MCH 2 nmol, 3) ACSF. Each mixture contained a DMSO equivalent concentration to that of the antagonist solution (up to 5% (v/v)). Ten μl of each solution was administered into lateral ventricle for 2 minutes. The injections were done between 7:00-8:00 a.m., and food intake was monitored for 4 h after the injection.
For animal studies, adult male Sprague-Dawley rats weighing 200-300g were obtained from Charles River Laboratories (Wilmington, Mass.), bearing a 23-gauge stainless steel cannula placed into the right lateral ventricle. Rats were housed individually and maintained on a 12 h light-dark cycle (6:00 am-6:00 pm light) with free access to tap water and rat chaw (PROLAB RMH 2500, containing 23.0% protein, 4.5% fat, gross energy 4.5 kcal/g. PMI nutrition international, LLC. Brentwood, Mo.). Prior to all studies, rats were handled and habituated for 7 days, and 10 μl of artificial cerebrospinal fluid (ACSF: NaCl 124, KCl 5, CaCl2 2.4 MgSO4 2, KH2PO4 1.25, NaHCO3 26 and glucose 10, in mM) was injected through the cannula to minimize stress effects at the time of the experiment. Cannula placement was confirmed in all animals by evaluating the response to 50 ng of angiotensin II. Only animals drinking more than 5 ml of water in 1 h were used in feeding studies.

Sequence of rat MCH1R (P97639 whole entry): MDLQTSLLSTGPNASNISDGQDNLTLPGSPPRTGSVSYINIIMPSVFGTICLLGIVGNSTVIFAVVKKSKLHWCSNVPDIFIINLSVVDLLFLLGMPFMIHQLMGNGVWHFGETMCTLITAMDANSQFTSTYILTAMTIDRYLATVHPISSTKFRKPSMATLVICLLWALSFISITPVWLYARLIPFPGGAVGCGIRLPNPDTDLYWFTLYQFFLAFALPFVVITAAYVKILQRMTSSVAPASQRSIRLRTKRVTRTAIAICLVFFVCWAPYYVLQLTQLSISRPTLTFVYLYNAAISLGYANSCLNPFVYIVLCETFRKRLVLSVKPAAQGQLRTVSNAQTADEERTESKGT

As to `CSCC[C@@H]1NC(=O)[C@@H](NC(=O)[C@H](CCCNC(=N)N)NC(=O)[C@H](CC(C)C)NC(=O)[C@H](CCSC)NC(=O)[C@H](CC(=O)O)NC(=O)[C@H](Cc2ccccc2)NC(=O)[C@@H](N)CC(=O)O)CSSC[C@@H](C(=O)N[C@@H](Cc2c[nH]c3ccccc23)C(=O)N[C@@H](CCC(N)=O)C(=O)N[C@H](C(=O)O)C(C)C)NC(=O)[C@@H]2CCCN2C(=O)[C@H](CCCNC(=N)N)NC(=O)[C@H](Cc2ccc(O)cc2)NC(=O)[C@H](C(C)C)NC(=O)[C@H](CCCNC(=N)N)NC(=O)CNC(=O)[C@H](CC(C)C)NC1=O` [MCH, reference compound], the EC50 at rat MCH1R worked out at 0.9 nM. Further, the “Feeding in satiated rats” value with rats was “induced rapid and robust feeding”.
